Source: patent US20210369677A1, “SMALL MOLECULE ACTIVATORS OF POLYCYSTIN-2 (PKD2) AND USES THEREOF” (Northwestern University, priority 2020, published 2021)

Target: T1, polycystin-2 (Homo sapiens, UniProt Q13563)
T1 construct: expressed in transfected cells
T1 sequence (Q13563 1-968): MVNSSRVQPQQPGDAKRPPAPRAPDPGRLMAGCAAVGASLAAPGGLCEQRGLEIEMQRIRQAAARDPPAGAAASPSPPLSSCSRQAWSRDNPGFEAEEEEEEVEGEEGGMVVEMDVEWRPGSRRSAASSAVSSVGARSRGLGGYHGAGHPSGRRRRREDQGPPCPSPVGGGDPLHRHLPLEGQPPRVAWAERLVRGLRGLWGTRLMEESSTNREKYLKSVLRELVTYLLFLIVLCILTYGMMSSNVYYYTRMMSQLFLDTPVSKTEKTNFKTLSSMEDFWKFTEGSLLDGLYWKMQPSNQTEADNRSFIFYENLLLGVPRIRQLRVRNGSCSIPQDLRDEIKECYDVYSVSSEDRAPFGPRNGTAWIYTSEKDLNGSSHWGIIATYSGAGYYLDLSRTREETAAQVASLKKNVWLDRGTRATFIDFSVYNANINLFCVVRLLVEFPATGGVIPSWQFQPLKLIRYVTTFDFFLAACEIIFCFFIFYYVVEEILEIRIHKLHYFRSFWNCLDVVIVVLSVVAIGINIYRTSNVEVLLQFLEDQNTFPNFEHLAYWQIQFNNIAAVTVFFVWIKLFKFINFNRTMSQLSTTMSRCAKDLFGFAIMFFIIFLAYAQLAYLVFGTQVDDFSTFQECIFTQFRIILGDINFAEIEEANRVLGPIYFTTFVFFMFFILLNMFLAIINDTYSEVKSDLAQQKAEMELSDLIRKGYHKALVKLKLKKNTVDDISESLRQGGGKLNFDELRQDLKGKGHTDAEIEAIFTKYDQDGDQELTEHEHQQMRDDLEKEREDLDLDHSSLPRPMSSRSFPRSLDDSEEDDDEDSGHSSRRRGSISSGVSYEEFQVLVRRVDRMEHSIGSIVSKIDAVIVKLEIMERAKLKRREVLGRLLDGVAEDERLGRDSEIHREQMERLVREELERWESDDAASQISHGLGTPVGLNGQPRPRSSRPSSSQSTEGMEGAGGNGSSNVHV
Format: cell-based
Conditions: for Effect of external disulfide reducing agents on wild type polycystin-2 current: whole cilia configuration
Description: Generation of HEK PKD2^Null cells line and the stable expression PKD2 variants. To generate the HEK PKD2^Null cell lines, we used a CRISPR/Cas9 gene editing kit available from Addgene (kit 1000000055). HEK 293 cells were electro-transfected with sgRNAs (caccg[…] and aaac[…]c) with the All-in-one Cas9 plasmid. […] Cells generated from single cell clones were selected after 4 weeks of expansion in a 96-wells plate. […] To generate the WT and variant PKD2 GFP or mCherry C-terminally tagged variant cell lines, the hPKD gene was subcloned into lentiviral pLVX-mcherry-N1 (Clontech) or pLVX-GFP-N1 (Clontech) vector using the Gibson assembly method. A linker encoding for six glycine residues was added between the PKD2 gene and the C-terminal tags, and missense variants were generated using standard, site-directed mutagenesis. The third-generation lentiviral packaging plasmids used for stable expression contained: pMDLg/pRRE (Addgene), […] pRSV-Rev (Addgene), and envelope expressing plasmid pMD2.G (Addgene). LentiX-293T cells (Takara) were transfected with polyethylineimine (Polysciences) at a 4:1:1:1 ratio of the transgene and viral packaging constructs. Supernatants were collected 48 and 72 hours post transfection and filtered through a 0.45 μm syringe filter. Lentiviral supernatant was concentrated 100 times using 1 volume of PEG-it (System Biosciences) virus precipitation solution and 4 volume of lentivirus-containing supernatant. The PEG-it and supernatant mixture were kept at 4 degrees for 24 hours and centrifuged at 1500 rpm for 30 minutes. The pellet containing lentivirus was resuspended with 1/100th volume of PBS of the original supernatant volume. HEK cells were infected with the lentivirus supernatant; PKD2-GFP or PKD2-mCherry expression was selected using culture media containing puromycin (2 μg/ml) for 30 to 90 days. Cells were then fluorescence-activated cell sorted (BD FacsMelody) at 5000 to 10,000 counts per minute to enrich for the transgene expression. Stable cell lines were cultured in Dulbecco's modified essential medium (DMEM) supplemented with 10% fetal bovine serum (FBS) and 100 units/ml penicillin, 100 units/ml streptomycin and 1 μg/ml puromycin selection antibiotic.
Electrophysiology. Ciliary ion currents were recorded using borosilicate glass electrodes polished to resistances of 14-22 MΩ using the cilium patch method previously described^32. Whole cell electrodes used to measure poly cystin-2L1 currents were fire polished to 1.5-4 MΩ resistances. Unless otherwise stated, whole cilia ionic currents were recorded in symmetrical [Na^+]. The pipette standard internal solution contained (in mM): 90 NaMES, 10 NaCl, 10 HEPES, 10 Na4-BAPTA (Glycine, N, N′-[1,2-ethanediylbis(oxy-2,1-phenylene)]bis[N-(carboxymethyl)]-,tetrasodium); pH was adjusted to 7.3 using NaOH. Standard bath solution contained 140 NaCl, 10 HEPES, 1.8 CaCl2); pH 7.4. All solutions were osmotically balanced to 295 (±6) mOsm with mannitol. Extracellular solutions containing TCEP and GSH were used within six hours of formulation. Data were collected using an Axopatch 200B patch clamp amplifier, Digidata 1440A, and pClamp 10 software. Whole-cilium and excised patch currents were digitized at 25 kHz and low-pass filtered at 10 kHz. In the whole cilium configuration, the holding potential was −60 mV and then depolarized using a 400 ms voltage ramp from −100 mV to 100 mV. The whole cell recordings of polycystin-2L1 currents were either activated by the same ramp protocol or by 100 ms depolarizations to 100 mV from a −100 mV holding potential.

| Compound | Block of ciliary WT polycystin-2 currents by trivalent ions (10 μM, voltage ramps) | Effect of external disulfide reducing agents on wild type polycystin-2 current |
| --- | --- | --- |
| [Gd] [gadolinium] | blocked | – |
| O=C(O)CCP(CCC(=O)O)CCC(=O)O [TCEP, tris-2-carboxyethyl phosphine] | – | near instantaneous reduction |
| N[C@@H](CCC(=O)N[C@@H](CS)C(=O)NCC(=O)O)C(=O)O [GSH, reduced glutathione] | – | near instantaneous reduction |
